Assay results taken from patent US9820954B2, “Quantitative peri-orbital application of ophthalmology drugs” (JENIVISION INC., priority 2015, dated 2017).
“And” between values parts separate entries of the source, which are not always exact repeats. Equal values may be shown once. Blank lines part the entries; values can stand above or below the compound they belong to.

Tests used:
[1] = test system: Cynomolgus monkeys; test: Intraocular pressure after periorbital roller-ball application in Cynomolgus monkeys; type: in vivo, Cynomolgus monkey; design: Ocular Pressure (Left Eye), Mean: unit not given beside the values; conditions: for Ocular Pressure (Left Eye), Mean: treated left eye, n=6
Experimental: Day 1; 8 Cynomolgus monkeys, which are the favored animal model for glaucoma studies, were assigned to the study. Intraocular pressure was measured in both eyes. The 6 animals with the highest intraocular pressure were selected for study.
(§1) Day 2 Intraocular pressure was measured in both eyes of the 6 selected animals. Before dosing the monkeys, the delivery of vehicle (Polyethylene glycol 400) and the compound (3-[(3′-fluoro-4-fluorobiphenyl-3-carbonyl) amino] phenoxyacetic acid isopropyl ester from the roller-ball applicator bottle was checked by rolling it along a solid surface (e.g. glass or plastic) until the liquid flowed freely from the roller-ball. The formulation of (3-[(3′-fluoro-4-fluorobiphenyl-3-carbonyl) amino] phenoxyacetic acid isopropyl ester was applied immediately afterwards by rolling the roller-ball slowly around the skin surrounding the left eye socket of each monkey. The roller-ball was rolled around this area 5 times for each monkey. The same drug application procedure was performed for the vehicle (Polyethylene glycol 400) to the right eye socket of each monkey. Intraocular pressure was measured in both eyes at 3 hours post-drug and vehicle application and again at 5 hours post-drug and vehicle application. The conjunctivae of both eyes were checked for redness at the end of the daily experimental period.
Day 3; Repeat the operation of Day 2.
Day 4; Repeat the operation of Day 2.
Day 5; Repeat the operation of Day 2.
Days 6 and 7, no drug administered.
(§2) Day 8; Intraocular pressure was measured in both eyes and the conjunctivae were checked for redness/hyperemia.
(§3) Day 15; Intraocular pressure in was measured in both eyes and the conjunctivae were checked for redness/hyperemia.
This is very unusual as most IOP lowering drugs are administered daily in order to continuously lower IOP.

[2] = test system: Cynomolgus monkeys; test: Ocular surface hyperemia assessment (conjunctival congestion) in Cynomolgus monkeys; type: in vivo, Cynomolgus monkey; design: key to Conjunctival Congestion, hyperemia score: 0: Normal Appearance; 0.5: Very Slight Redness or Dilation of Conjunctival Vessels; 1: More Obvious Redness or Dilation of Conjunctival Vessels; 2: Whole Conjunctiva Exhibiting Pronounced Red Coloration. Visual Clarification of Individual Conjunctival Vessels Difficult.; 3: Whole Conjunctiva Exhibiting Pronounced Red Coloration. Visual Clarification of Individual Iridial Vessels Impossible. Accompany Conjunctival Edema; conditions: for Conjunctival Congestion, hyperemia score: left eyes, one value per animal
Experimental: as §1, §2, §3

[3] = test system: patient; test: Periorbital application in a patient with bacterial conjunctivitis (patient example); type: in vivo, human; conditions: Example VIII: 0.3% w/w cream (Composition 3, Table II), periorbital skin of the right eye daily
From the text: A pediatric patient suffers from bacterial conjunctivitis in their right eye.

[4] = test system: patient; test: Periorbital application for ocular pain/inflammation after cataract surgery (patient example); type: in vivo, human; conditions: Example IX: 0.1% w/v solution (formula 5, table 1) once a day for five days, periorbital skin of both eyes
From the text: A person is suffering from ocular/pain inflammation after cataract surgery.

- Conjunctival Congestion, hyperemia score ([2]; 150407 (12:00) (Day 2, 3 hr post)): 0
- Conjunctival Congestion, hyperemia score ([2]; 150407 (14:00) (Day 2, 5 hr post)): 0
- Conjunctival Congestion, hyperemia score ([2]; 150408 (12:00) (Day 3, 3 hr post)): 0
- Conjunctival Congestion, hyperemia score ([2]; 150408 (14:00) (Day 3, 5 hr post)): 0
- Conjunctival Congestion, hyperemia score ([2]; 150409 (12:00) (Day 4, 3 hr post)): 0
- Conjunctival Congestion, hyperemia score ([2]; 150409 (14:00) (Day 4, 5 hr post)): 0
- Conjunctival Congestion, hyperemia score ([2]; 150410 (12:00) (Day 5, 3 hr post)): 0
- Conjunctival Congestion, hyperemia score ([2]; 150410 (14:00) (Day 5, 5 hr post)): 0
- Conjunctival Congestion, hyperemia score ([2]; 150413 (8:00) (Day 8)): 0.6 and 0 (4×) and 0.5
- Conjunctival Congestion, hyperemia score ([2]; 150420 (8:00) (Day 15)): 0
- surface hyperemia (summary of Table IV) ([2]; Cynomolgus monkeys, exception: very slight redness on Day 7 in two monkeys): almost no surface hyperemia
SMILES: CC(C)OC(=O)COc1cccc(NC(=O)c2cc(-c3cccc(F)c3)ccc2F)c1 [3-[(3′-fluoro-4-fluorobiphenyl-3-carbonyl)amino] phenoxyacetic acid isopropyl ester]
- reductions in intraocular pressure (Table III and FIG. 2) ([1]; Cynomolgus monkeys, periorbital application, versus normal baseline): Statistically significant reductions
- Ocular Pressure (Left Eye), Mean ([1]; Day 2-3 hr post, in Polyethylene glycol 400, dosed Days 2-5, baseline Day 1 17.8 / 18.3): 18.0
- Ocular Pressure (Left Eye), Mean ([1]; Day 2-5 hr post, baseline Day 1 17.8 / 18.3): 17.8
- Ocular Pressure (Left Eye), Mean ([1]; Day 3-3 hr post): 12.2
- Ocular Pressure (Left Eye), Mean ([1]; Day 3-5 hr post): 12.3
- Ocular Pressure (Left Eye), Mean ([1]; Day 4-3 hr post): 10.9
- Ocular Pressure (Left Eye), Mean ([1]; Day 4-5 hr post): 10.6
- Ocular Pressure (Left Eye), Mean ([1]; Day 5-3 hr post): 8.4
- Ocular Pressure (Left Eye), Mean ([1]; Day 5-5 hr post): 9.1
- Ocular Pressure (Left Eye), Mean ([1]; Day 8-8:00am, no drug after Day 5): 8.5
- Ocular Pressure (Left Eye), Mean ([1]; Day 15-8:00, no drug after Day 5): 17.4
- IOP lowering (FIG. 2) ([1]; after five doses): long term IOP lowering
- duration of IOP lowering ([1]; periorbital skin, single administration and/or after a series of single administrations): 7 to 14 days

SMILES: O=C(O)c1cn(C2CC2)c2cc(N3CCNCC3)c(F)cc2c1=O [ciprofloxacin]
- bacterial conjunctivitis [3]: bacterial infection disappears

SMILES: C[C@]12C=CC(=O)C=C1CC[C@@H]1[C@@H]2[C@@H](O)C[C@@]2(C)[C@H]1CC[C@]2(O)C(=O)CO [prednisolone]
- ocular pain and inflammation after cataract surgery [4]: reduces the pain and inflammation
